Values quoted from earlier work as cited in PMC9001717, “Tyrosine 121 moves revealing a ligandable pocket that couples catalysis to ATP-binding in serine racemase” (Communications Biology, 2022).

System: SR
Set-up: method as in supplementary refs 2, 11-32
Conditions: literature summary; ref supplementary refs 2, 11-32; cited from earlier work

| Molecule | Inhibition mode |
| --- | --- |
| O=C(O)C1CC1C(=O)O (stereo not drawn) [1,2-cyclopropanedicarboxylic acid] | Competitive |
| O=C(O)C(CO)(CO)C(=O)O [2,2-bis(hydroxymethyl)malonate] | Competitive |
| O=C(O)C(Cl)(Cl)C(=O)O [2,2-dichloromalonate] | Competitive |
| NC(C(=O)O)C(=O)O [2-aminomalonate] | Competitive |
| O=C(O)C(F)C(=O)O [2-fluoromalonate] | Competitive |
| O=C(O)C(O)C(=O)O [2-hydroxymalonate] | Competitive |
| O=C(O)/C(O)=C(\O)C(=O)O [Dihydroxyfumaric] | Competitive |
| NC(CCS(=O)(=O)O)C(=O)O (stereo not drawn) [Homocysteic acid] | Competitive |
| NC(=O)C[C@H](N)C(=O)O [L-asparagine] | Competitive |
| N[C@@H](CC(=O)O)C(=O)O [L-aspartate] | Competitive |
| N[C@@H](CSS(=O)(=O)O)C(=O)O [L-cysteine-S-sulfate] | Competitive |
| O=C(O)C[C@H](O)C(=O)O [L-malic] | Competitive |
| N[C@@H](COS(=O)(=O)O)C(=O)O [L-serine-O-sulfate] | Competitive |
| O=C(O)/C=C\C(=O)O [Maleic] | Competitive |
| O=C(O)CC(=O)C(=O)O [Oxaloacetic acid] | Product inhibition |
| O=C(O)CCC(=O)O [Succinic] | Competitive |
| O=C(O)C(O)C(O)C(=O)O (stereo not drawn) [Tartaric] | Competitive |
| NC(CO)(CO)C(=O)O [α-(hydroxymethyl)serine] | Substrate-product inhibition |
| N[C@@H](CCl)C(=O)O [β-chloro-L-alanine] | Competitive |
| phosphatidylinositol 4,5-bisphosphate [PIP2] | Inhibition (noncompetitive) |
| Golga3: Golgin subfamily A member 3 (protein, UniProt Q08378 1-1498, looked up) Golgin subfamily A member 3: MDGASAEQDGLQEDRSHSGPSSLPEAPLKPPGPLVPPDQQDKVQCAEVNRASTEGESPDGPGQGGLCQNGPTPPFPDPPSSLDPTTSPVGPDASPGVAGFHDNLRKSQGTSAEGSVRKEALQSLRLSLPMQETQLCSTDSPLPLEKEEQVRLQARKWLEEQLKQYRVKRQQERSSQPATKTRLFSTLDPELMLNPENLPRASTLAMTKEYSFLRTSVPRGPKVGSLGLPAHPREKKTSKSSKIRSLADYRTEDSNAGNSGGNVPAPDSTKGSLKQNRSSAASVVSEISLSPDTDDRLENTSLAGDSVSEVDGNDSDSSSYSSASTRGTYGILSKTVGTQDTPYMVNGQEIPADTLGQFPSIKDVLQAAAAEHQDQGQEVNGEVRSRRDSICSSVSLESSAAETQEEMLQVLKEKMRLEGQLEALSLEASQALKEKAELQAQLAALSTKLQAQVECSHSSQQRQDSLSSEVDTLKQSCWDLERAMTDLQNMLEAKNASLASSNNDLQVAEEQYQRLMAKVEDMQRSMLSKDNTVHDLRQQMTALQSQLQQVQLERTTLTSKLKASQAEISSLQSVRQWYQQQLALAQEARVRLQGEMAHIQVGQMTQAGLLEHLKLENVSLSQQLTETQHRSMKEKGRIAAQLQGIEADMLDQEAAFMQIQEAKTMVEEDLQRRLEEFEGERERLQRMADSAASLEQQLEQVKLTLLQRDQQLEALQQEHLDLMKQLTLTQEALQSREQSLDALQTHYDELQARLGELQGEAASREDTICLLQNEKIILEAALQAAKSGKEELDRGARRLEEGTEETSETLEKLREELAIKSGQVEHLQQETAALKKQMQKIKEQFLQQKVMVEAYRRDATSKDQLISELKATRKRLDSELKELRQELMQVHGEKRTAEAELSRLHREVAQVRQHMADLEGHLQSAQKERDEMETHLQSLQFDKEQMVAVTEANEALKKQIEELQQEARKAITEQKQKMRRLGSDLTSAQKEMKTKHKAYENAVGILSRRLQEALAAKEAADAELGQLRAQGGSSDSSLALHERIQALEAELQAVSHSKTLLEKELQEVIALTSQELEESREKVLELEDELQESRGFRKKIKRLEESNKKLALELEHEKGKLTGLGQSNAALREHNSILETALAKREADLVQLNLQVQAVLQRKEEEDRQMKHLVQALQASLEKEKEKVNSLKEQVAAAKVEAGHNRRHFKAASLELSEVKKELQAKEHLVQKLQAEADDLQIREGKHSQEIAQFQAELAEARAQLQLLQKQLDEQLSKQPVGNQEMENLKWEVDQKEREIQSLKQQLDLTEQQGRKELEGLQQLLQNVKSELEMAQEDLSMTQKDKFMLQAKVSELKNNMKTLLQQNQQLKLDLRRGAAKTRKEPKGEASSSNPATPIKIPDCPVPASLLEELLRPPPAVSKEPLKNLNSCLQQLKQEMDSLQRQMEEHALTVHESLSSWTPLEPATASPVPPGGHAGPRGDPQRHSQSRASKEGPGE | Increases SR levels |
| DISC1: Disrupted-In-Schizophrenia-1 (protein, UniProt Q9NRI5 1-854, looked up) Disrupted in schizophrenia 1 …: MPGGGPQGAPAAAGGGGVSHRAGSRDCLPPAACFRRRRLARRPGYMRSSTGPGIGFLSPAVGTLFRFPGGVSGEESHHSESRARQCGLDSRGLLVRSPVSKSAAAPTVTSVRGTSAHFGIQLRGGTRLPDRLSWPCGPGSAGWQQEFAAMDSSETLDASWEAACSDGARRVRAAGSLPSAELSSNSCSPGCGPEVPPTPPGSHSAFTSSFSFIRLSLGSAGERGEAEGCPPSREAESHCQSPQEMGAKAASLDGPHEDPRCLSRPFSLLATRVSADLAQAARNSSRPERDMHSLPDMDPGSSSSLDPSLAGCGGDGSSGSGDAHSWDTLLRKWEPVLRDCLLRNRRQMEVISLRLKLQKLQEDAVENDDYDKAETLQQRLEDLEQEKISLHFQLPSRQPALSSFLGHLAAQVQAALRRGATQQASGDDTHTPLRMEPRLLEPTAQDSLHVSITRRDWLLQEKQQLQKEIEALQARMFVLEAKDQQLRREIEEQEQQLQWQGCDLTPLVGQLSLGQLQEVSKALQDTLASAGQIPFHAEPPETIRSLQERIKSLNLSLKEITTKVCMSEKFCSTLRKKVNDIETQLPALLEAKMHAISGNHFWTAKDLTEEIRSLTSEREGLEGLLSKLLVLSSRNVKKLGSVKEDYNRLRREVEHQETAYETSVKENTMKYMETLKNKLCSCKCPLLGKVWEADLEACRLLIQSLQLQEARGSLSVEDERQMDDLEGAAPPIPPRLHSEDKRKTPLKVLEEWKTHLIPSLHCAGGEQKEESYILSAELGEKCEDIGKKLLYLEDQLHTAIHSHDEDLIQSLRRELQMVKETLQAMILQLQPAKEAGEREAAASCMTAGVHEAQA | Stabilises SR |
| GRIP: glutamate receptor-interacting protein (protein, UniProt Q9Y3R0 1-1128, looked up) Glutamate …: MIAVSFKCRCQILRRLTKDESPYTKSASQTKPPDGALAVRRQSIPEEFKGSTVVELMKKEGTTLGLTVSGGIDKDGKPRVSNLRQGGIAARSDQLDVGDYIKAVNGINLAKFRHDEIISLLKNVGERVVLEVEYELPPVSVQGSSVIFRTVEVTLHKEGNTFGFVIRGGAHDDRNKSRPVVITCVRPGGPADREGTIKPGDRLLSVDGIRLLGTTHAEAMSILKQCGQEAALLIEYDVSVMDSVATASGPLLVEVAKTPGASLGVALTTSMCCNKQVIVIDKIKSASIADRCGALHVGDHILSIDGTSMEYCTLAEATQFLANTTDQVKLEILPHHQTRLALKGPDHVKIQRSDRQLTWDSWASNHSSLHTNHHYNTYHPDHCRVPALTFPKAPPPNSPPALVSSSFSPTSMSAYSLSSLNMGTLPRSLYSTSPRGTMMRRRLKKKDFKSSLSLASSTVGLAGQVVHTETTEVVLTADPVTGFGIQLQGSVFATETLSSPPLISYIEADSPAERCGVLQIGDRVMAINGIPTEDSTFEEASQLLRDSSITSKVTLEIEFDVAESVIPSSGTFHVKLPKKHNVELGITISSPSSRKPGDPLVISDIKKGSVAHRTGTLELGDKLLAIDNIRLDNCSMEDAVQILQQCEDLVKLKIRKDEDNSDEQESSGAIIYTVELKRYGGPLGITISGTEEPFDPIIISSLTKGGLAERTGAIHIGDRILAINSSSLKGKPLSEAIHLLQMAGETVTLKIKKQTDAQSASSPKKFPISSHLSDLGDVEEDSSPAQKPGKLSDMYPSTVPSVDSAVDSWDGSAIDTSYGTQGTSFQASGYNFNTYDWRSPKQRGSLSPVTKPRSQTYPDVGLSYEDWDRSTASGFAGAADSAETEQEENFWSQALEDLETCGQSGILRELEEKADRRVSLRNMTLLATIMSGSTMSLNHEAPTPRSQLGRQASFQERSSSRPHYSQTTRSNTLPSDVGRKSVTLRKMKQEIKEIMSPTPVELHKVTLYKDSDMEDFGFSVADGLLEKGVYVKNIRPAGPGDLGGLKPYDRLLQVNHVRTRDFDCCLVVPLIAESGNKLDLVISRNPLASQKSIDQQSLPGDWSEQNSAFFQQPSHGGNLETREPTNTL | Activation; binds to SR |
| PICK1: protein interacting with C-kinase (protein, UniProt Q9NRD5 1-415, looked up) PRKCA-binding protein: MFADLDYDIEEDKLGIPTVPGKVTLQKDAQNLIGISIGGGAQYCPCLYIVQVFDNTPAALDGTVAAGDEITGVNGRSIKGKTKVEVAKMIQEVKGEVTIHYNKLQADPKQGMSLDIVLKKVKHRLVENMSSGTADALGLSRAILCNDGLVKRLEELERTAELYKGMTEHTKNLLRAFYELSQTHRAFGDVFSVIGVREPQPAASEAFVKFADAHRSIEKFGIRLLKTIKPMLTDLNTYLNKAIPDTRLTIKKYLDVKFEYLSYCLKVKEMDDEEYSCIALGEPLYRVSTGNYEYRLILRCRQEARARFSQMRKDVLEKMELLDQKHVQDIVFQLQRLVSTMSKYYNDCYAVLRDADVFPIEVDLAHTTLAYGLNQEEFTDGEEEEEEEDTAAGEPSRDTRGAAGPLDKGGSWCDS | Inhibition; binds to SR |
